{"source": "patent US20070281935A1", "about": "“Use” (PFIZER INC., priority 2004, published 2007)", "format_in_all_cases": "in vivo", "key": {"[1]": {"test_system": "cows", "assay": "Changes in blood non-esterified fatty acid (NEFA) concentrations in transition cows", "method": "(§1) To determine negative energy balance, serum concentrations of NEFAs or ketone bodies, or levels of triglycerides in liver tissues, are measured. Higher than ‘normal’ levels of NEFA's and/or triglycerides and/or ketone bodies are indicators of negative energy balance. Levels considered ‘higher than normal’ or ‘excessive’ are: • NEFA's >800 μmol/L in serum. • Triglycerides >10% w/w in liver tissue. • Ketone bodies […] in serum. Determination of Changes in Blood Non-Esterified Fatty Acid (NEFA) Concentrations and Liver Triglycerides Levels:\n(§2) Compounds were administered once or several times in the transition period at dose levels predicted to be effective by comparing results of in-vitro receptor affinity tests in laboratory species and pharmacokinetic evaluations in cattle. NEFA levels were determined via standard laboratory methods, for example, using the commercial WAKO NEFA kit (Wako Chemical Co., USA, Dallas, Tex., 994-75409), and liver triglyceride content was determined using the method as described in the literature (J. K. Drackley, J. J. Veenhuizen, M. J. Richard and J. W. Young, J Dairy Sci, 1991, 74, 4254)). […]\n(§3) As soon as possible post-calving (˜30 minutes) the cow was transferred to the freestall barn for the next scheduled milking (6:00 hrs and 19:00 hrs). […] Pre and post-calving NEFA samples were analyzed using the WAKO NEFA-C test kit (#994-75409). […]"}, "[2]": {"test_system": "cows", "assay": "Liver triglyceride levels in transition cows (post-calving liver biopsies)", "conditions": "all treatment regimens (0.5 mg/kg); Days 5, 10 and 14 postcalving", "method": "as §1, §2, §3"}, "[3]": {"test_system": "Holstein cows", "assay": "Milk yield and milk quality study in pregnant, non-lactating Holstein cows", "conditions": "approximately 0.5 mg/kg subcutaneous on day of calving and day five post-calving", "method": "Machines to assay for milk protein, fat, or lactose content are commercially available (MilkoScan™ 50, MilkoScan™ 4000, MilkoScan™ FT 6000 available from Foss Group). Machines to assay for somatic cell content are also commercially available (Fossomatic™ FC, Fossomatic™ Minor available from Foss Group).\nOne hundred twenty four pregnant, non-lactating Holstein cows were allocated to two treatment groups (placebo and COMPOUND at approximately 0.5 mg/kg). Animals were allowed to calve, treated by subcutaneous injection on the day of calving and on day five post-calving. Disease events and daily milk production were recorded for the following sixty days. The average daily milk yield in the treated cows was increased from 41.8 to 43.2 kg/day (p=0.052). There was also a significant beneficial effect on milk quality (increased protein and lactose yield, decreased somatic cell count). Results are shown in the FIG. 3 and FIG. 4, where COMPOUND represents Compound Z."}, "[4]": {"conditions": "versus placebo, significant beneficial effect"}}, "data": [{"smiles": "CC(C)(Oc1cccc([C@@H]2CCCN(C(=O)OCc3ccc(C(F)(F)F)cc3)C2)c1)C(=O)O", "note": "[Compound Z, (3S)-3-[3-(1-Carboxy-1-methyl-ethoxy)-phenyl]-piperidine-1-carboxylic acid 4-trifluoromethyl-benzyl ester]", "values": [{"measurement": "serum NEFA levels as compared to controls", "setting": "[1]; all animals treated with Compound Z (T02, T03, T04; 0.5 mg/kg), from Day 1 (after calving) until Day 6 of the study", "result": "significantly lower"}, {"measurement": "serum NEFA levels compared to controls", "setting": "[1]; treatment group T03 (0.5 mg/kg at calving and post partum eod 4 doses), all timepoints", "result": "significantly lower"}, {"measurement": "liver triglyceride levels compared to placebo", "setting": "[2]", "result": "significantly lowered"}, {"measurement": "average daily milk yield", "setting": "[3]; sixty days recording, placebo 41.8, p=0.052", "result": 43.2, "unit": "kg/day"}, {"measurement": "milk quality: lactose yield", "setting": "[3]; [4]", "result": "increased"}, {"measurement": "milk quality: protein yield", "setting": "[3]; [4]", "result": "increased"}, {"measurement": "milk quality: somatic cell count", "setting": "[3]; [4]", "result": "decreased"}]}]}
